Where two headings read alike, the source gives them in different places.
Experiments:
[1] = test system: mitochondrial membrane potential; type: cell-based, mouse
reactive oxygen species = type: cell-based, mouse
OXPHOS gene expression = type: cell-based, mouse
nuOXPHOS transcripts = type: cell-based, mouse
mtOXPHOS transcripts = type: cell-based, mouse
cytochrome c = type: cell-based, mouse
[2] = test system: cellular dehydrogenase activity
[3] = composite Z-score vs mock-treated (DMSO) wells, Conc 20 μM
[4] = composite Z-score vs DMSO, Conc 20 μM
[5] = composite Z-score vs DMSO wells, Conc 20 μM
[6] = normalized composite Z-score vs mock-treated (DMSO) wells, Conc 20 μM
[7] = composite Z-score vs mock-treated (DMSO) wells, concentration of each compound in μM
[8] = Table 4, C2C12 myotubes, 48 h, composite Z-score
[9] = 20 μM, composite Z-score vs DMSO

cytochrome c, sequence (P62897 whole entry): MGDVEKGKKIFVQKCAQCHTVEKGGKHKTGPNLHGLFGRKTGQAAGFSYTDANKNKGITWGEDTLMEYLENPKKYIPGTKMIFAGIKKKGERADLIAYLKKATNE

COc1ccc(-c2coc3cc(O)ccc3c2=O)c(OC)c1 [2′-methoxyformonetin]
ΔΨm [1, 3]: 0.388 | ROS (reactive oxygen species; [3]): 1.137 | GE-HTS (OXPHOS gene expression; [3]): −0.484 | nucOX (nuOXPHOS transcripts; [3]): −0.561 | mitoOX (mtOXPHOS transcripts; [3]): −0.296 | cyt c (cytochrome c; [3]): −1.318 | Viability (C2C12 myotubes; [3]): 0.477 | MTT [2, 3]: −1.138

CC(C)CCC[C@@H](C)[C@H]1CC[C@H]2[C@@H]3CC(=O)[C@H]4C[C@@H](O)CC[C@]4(C)[C@H]3CC[C@]12C [5alpha-cholestan-3beta-ol-6-one]
ΔΨm [1, 4]: 0.479 | ROS (reactive oxygen species; [4]): 0.397 | GE-HTS (OXPHOS gene expression; [4]): −0.731 | nucOX (nuOXPHOS transcripts; [4]): −0.603 | mitoOX (mtOXPHOS transcripts; [4]): −0.862 | cyt c (cytochrome c; [4]): 1.006 | Viability (C2C12 myotubes; [4]): −0.430 | MTT [2, 4]: 0.811

CC(C)=CCC1=C(O)C(=O)c2ccccc2C1=O [lapachol]
ΔΨm [1, 5]: 0.035 | ROS (reactive oxygen species; [5]): −0.544 | GE-HTS (OXPHOS gene expression; [5]): −1.316 | nucOX (nuOXPHOS transcripts; [5]): −1.308 | mitoOX (mtOXPHOS transcripts; [5]): −1.077 | cyt c (cytochrome c; [5]): 0.325 | Viability (C2C12 myotubes; [5]): −0.409 | MTT [2, 5]: −1.211

CN1CCCN=C1/C=C/c1cccs1 [pyrantel pamoate]
ΔΨm [1]: −2.829 | ROS (reactive oxygen species): 0.592 | GE-HTS (OXPHOS gene expression): −0.468 | nucOX (nuOXPHOS transcripts): −0.500 | mitoOX (mtOXPHOS transcripts): −0.327 | cyt c (cytochrome c): 0.640 | Viability (C2C12 myotubes): −1.934 | MTT [2]: −0.189

COc1cccc(C=CC(=O)O)c1C(C)C [2-isopropyl-3-methoxycinnamic acid]
ΔΨm [1, 6]: −0.155 | ROS (reactive oxygen species; [6]): 0.433 | GE-HTS (OXPHOS gene expression; [6]): 0.153 | nucOX (nuOXPHOS transcripts; [6]): 0.153 | mitoOX (mtOXPHOS transcripts; [6]): 0.071 | cyt c (cytochrome c; [6]): 0.274 | Viability (C2C12 myotubes; [6]): 0.040 | MTT [2, 6]: −2.002

CC(=O)OCC(=O)[C@@]1(O)[C@H](C)C[C@H]2[C@@H]3CCC4=CC(=O)C=C[C@]4(C)[C@@]3(F)[C@@H](O)C[C@@]21C [dexamethasone acetate]
ΔΨm [1, 4]: −0.439 | ROS (reactive oxygen species; [4]): 0.067 | GE-HTS (OXPHOS gene expression; [4]): 0.461 | nucOX (nuOXPHOS transcripts; [4]): 0.516 | mitoOX (mtOXPHOS transcripts; [4]): 0.330 | cyt c (cytochrome c; [4]): 0.174 | Viability (C2C12 myotubes; [4]): −1.518 | MTT [2, 4]: 0.058

CC[C@H](C)[C@H](N)C(=O)N1CCC[C@H]1C(=O)N[C@H](C(=O)O)[C@@H](C)CC [diprotin A]
ΔΨm [1, 7]: 0.357 | ROS (reactive oxygen species; [7]): 0.300 | GE-HTS (OXPHOS gene expression; [7]): 0.099 | nucOX (nuOXPHOS transcripts; [7]): −0.102 | mitoOX (mtOXPHOS transcripts; [7]): 0.490 | cyt c (cytochrome c; [7]): −0.975 | Viability (C2C12 myotubes; [7]): −0.788 | MTT [2, 7]: −1.068

Cc1cc(O)c(C)c(O)c1C(=O)O [3-methylorsellinic acid]
ΔΨm [1, 4]: −0.030 | ROS (reactive oxygen species; [4]): 0.860 | GE-HTS (OXPHOS gene expression; [4]): −1.005 | nucOX (nuOXPHOS transcripts; [4]): −1.318 | mitoOX (mtOXPHOS transcripts; [4]): −0.108 | cyt c (cytochrome c; [4]): 0.321 | Viability (C2C12 myotubes; [4]): −0.494 | MTT [2, 4]: −1.253

spiramycin
ΔΨm [1, 4]: −0.686 | ROS (reactive oxygen species; [4]): 0.379 | GE-HTS (OXPHOS gene expression; [4]): −0.691 | nucOX (nuOXPHOS transcripts; [4]): −0.867 | mitoOX (mtOXPHOS transcripts; [4]): −0.204 | cyt c (cytochrome c; [4]): 0.216 | Viability (C2C12 myotubes; [4]): 0.176 | MTT [2, 4]: −0.770

COC(=O)C[C@H]1C(C)(C)[C@@H](O)[C@@H]2CC3=C4CC(O)O[C@@H](c5ccoc5)[C@]4(C)CCC3[C@@]1(C)C2=O (stereo partly drawn) [3,16-dideoxymexicanolide-3beta-diol]
ΔΨm [1, 6]: 0.154 | ROS (reactive oxygen species; [6]): 0.587 | GE-HTS (OXPHOS gene expression; [6]): 0.150 | nucOX (nuOXPHOS transcripts; [6]): 0.282 | mitoOX (mtOXPHOS transcripts; [6]): −0.202 | cyt c (cytochrome c; [6]): −0.130 | Viability (C2C12 myotubes; [6]): −0.384 | MTT [2, 6]: −1.091

CC1(O)/C=C\C=C(\CO)C2CC(C)(C)C2(O)CC1 (centres unmarked) [punctaporin B]
ΔΨm [1, 6]: −0.174 | ROS (reactive oxygen species; [6]): 0.731 | GE-HTS (OXPHOS gene expression; [6]): −0.242 | nucOX (nuOXPHOS transcripts; [6]): −0.049 | mitoOX (mtOXPHOS transcripts; [6]): −0.555 | cyt c (cytochrome c; [6]): 0.175 | Viability (C2C12 myotubes; [6]): 0.554 | MTT [2, 6]: −0.596

c1ccc2c3c([nH]c2c1)[C@H]1[C@H]2CC[C@H]([C@@H]4CCCN[C@@H]42)N1CC3 [nitrarine]
ΔΨm [1, 7]: −0.986 | ROS (reactive oxygen species; [7]): 0.458 | GE-HTS (OXPHOS gene expression; [7]): −0.352 | nucOX (nuOXPHOS transcripts; [7]): −0.303 | mitoOX (mtOXPHOS transcripts; [7]): −0.378 | cyt c (cytochrome c; [7]): 0.040 | Viability (C2C12 myotubes; [7]): −0.068 | MTT [2, 7]: −1.978

COc1ccc([C@H]2Oc3c(I)c(OC)cc(OC)c3C[C@@H]2O)cc1OC [8-iodocatechin tetramethyl ether, reference compound]
ΔΨm ([1]; Table 4, C2C12 myotubes, 48 h, JC-1, composite Z-score): 0.146 | ΔΨm [1, 3]: 0.146 | ROS (reactive oxygen species; [8]): −0.448 | ROS (reactive oxygen species; [3]): −0.448 | GE-HTS (OXPHOS gene expression; [3]): −1.194 | nucOX (nuOXPHOS transcripts; [3]): −0.985 | mitoOX (mtOXPHOS transcripts; [3]): −1.411 | cyt c (cytochrome c; [3]): 0.237 | Viability (C2C12 myotubes; [8]): 0.377 | Viability (C2C12 myotubes; [3]): 0.377 | MTT [2, 8]: −1.359 | MTT [2, 3]: −1.359

COc1ccc2c(=O)c(OC)c(-c3ccccc3)oc2c1 [3,7-dimethoxyflavone]
ΔΨm [1, 6]: 0.817 | ROS (reactive oxygen species; [6]): 0.652 | GE-HTS (OXPHOS gene expression; [6]): −0.945 | nucOX (nuOXPHOS transcripts; [6]): −1.084 | mitoOX (mtOXPHOS transcripts; [6]): −0.434 | cyt c (cytochrome c; [6]): 0.982 | Viability (C2C12 myotubes; [6]): −0.730 | MTT [2, 6]: −1.089

CC(=O)Oc1cc(-c2coc3cc(OC(C)=O)c(OC(C)=O)c(OC(C)=O)c3c2=O)cc(OC(C)=O)c1OC(C)=O [iriginol hexaaceatate]
ΔΨm [1, 3]: −0.204 | ROS (reactive oxygen species; [3]): 0.815 | GE-HTS (OXPHOS gene expression; [3]): 0.928 | nucOX (nuOXPHOS transcripts; [3]): 0.859 | mitoOX (mtOXPHOS transcripts; [3]): 0.938 | cyt c (cytochrome c; [3]): −0.315 | Viability (C2C12 myotubes; [3]): −0.291 | MTT [2, 3]: −0.565

O=C(O)CF [sodium fluoroacetate]
ΔΨm [1, 4]: −0.784 | ROS (reactive oxygen species; [4]): 0.613 | GE-HTS (OXPHOS gene expression; [4]): −0.009 | nucOX (nuOXPHOS transcripts; [4]): 0.206 | mitoOX (mtOXPHOS transcripts; [4]): −0.459 | cyt c (cytochrome c; [4]): 0.653 | Viability (C2C12 myotubes; [4]): −0.906 | MTT [2, 4]: −1.379

N[C@@H](CCC(=O)N[C@@H](CSC(CC(=O)O)C(=O)O)C(=O)NCC(=O)O)C(=O)O (stereo partly drawn) [S-(1,2-dicarboxyethyl)glutathione]
ΔΨm [1, 4]: 0.038 | ROS (reactive oxygen species; [4]): 0.258 | GE-HTS (OXPHOS gene expression; [4]): −0.364 | nucOX (nuOXPHOS transcripts; [4]): −0.400 | mitoOX (mtOXPHOS transcripts; [4]): −0.219 | cyt c (cytochrome c; [4]): −0.411 | Viability (C2C12 myotubes; [4]): −0.049 | MTT [2, 4]: −0.635

O=C(COc1ccc(Cl)cc1)N1CCN(Cc2ccc3c(c2)OCO3)CC1 [fipexide]
ΔΨm [1]: −0.624 | ΔΨm [1, 9]: −0.354 | ROS (reactive oxygen species): 0.307 | ROS (reactive oxygen species; [9]): 0.873 | GE-HTS (OXPHOS gene expression): 0.169 | GE-HTS (OXPHOS gene expression; [9]): −0.241 | nucOX (nuOXPHOS transcripts): 0.163 | nucOX (nuOXPHOS transcripts; [9]): −0.010 | mitoOX (mtOXPHOS transcripts): 0.155 | mitoOX (mtOXPHOS transcripts; [9]): −0.657 | cyt c (cytochrome c): 0.573 | cyt c (cytochrome c; [9]): −0.071 | Viability (C2C12 myotubes): −0.617 | Viability (C2C12 myotubes; [9]): 0.721 | MTT [2]: −0.924 | MTT [2, 9]: −0.186

CC(C(=O)O)[C@H]1CCC2C3CC=C4C[C@@H](O)CC[C@]4(C)C3CC[C@@]21C (some centres unmarked)
ΔΨm [1, 7]: −0.402 | ROS (reactive oxygen species; [7]): 0.315 | GE-HTS (OXPHOS gene expression; [7]): 0.756 | nucOX (nuOXPHOS transcripts; [7]): 0.793 | mitoOX (mtOXPHOS transcripts; [7]): 0.486 | cyt c (cytochrome c; [7]): −0.309 | Viability (C2C12 myotubes; [7]): −0.295 | MTT [2, 7]: −0.244
